Source: paper PMC12678798, “Discovery of an allosteric binding site for anthraquinones at the human P2X4 receptor” (Nature Communications, 2025)
Where a chain is given by its changes, count along the chain named. Where two headings read alike, the source gives them in different places.

What was measured:
[1] = target: T1, human wt P2X4 receptor (Homo sapiens, UniProt Q99571); test: ATP-induced calcium influx assay, human wt P2X4 receptor in 1321N1 astrocytoma cells; assay type: cell-based; settings: wt hP2X4; calcium influx
T1 construct: expressed in transfected cells
T1 sequence (Q99571 1-388): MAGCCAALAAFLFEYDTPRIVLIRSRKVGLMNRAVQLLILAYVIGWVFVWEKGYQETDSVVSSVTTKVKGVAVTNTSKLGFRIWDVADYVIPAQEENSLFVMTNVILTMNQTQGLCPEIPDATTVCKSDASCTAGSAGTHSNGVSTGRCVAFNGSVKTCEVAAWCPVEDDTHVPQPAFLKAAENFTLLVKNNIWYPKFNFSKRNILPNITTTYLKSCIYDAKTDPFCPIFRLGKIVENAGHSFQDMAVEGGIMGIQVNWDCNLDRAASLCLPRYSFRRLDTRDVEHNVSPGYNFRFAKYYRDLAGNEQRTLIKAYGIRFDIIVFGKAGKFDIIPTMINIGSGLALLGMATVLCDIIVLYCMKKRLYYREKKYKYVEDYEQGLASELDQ

[2] = target: T2, human P2X4-E307T receptor mutant (Homo sapiens, UniProt Q99571, E307T); test: ATP-induced calcium influx assay, P2X4-E307T mutant in 1321N1 astrocytoma cells; assay type: cell-based; settings: P2X4-E307T
T2 construct: expressed in transfected cells
T2 sequence (Q99571 1-388 E307T): T1 sequence (Q99571 1-388) with E307T

[3] = target: T3, chimeric P2X4(P2X2) receptor c10^R301-Q308 (Homo sapiens, UniProt Q99571, A304N/D302K/DEL301-301/E307T/L303I/N306T/Q308T); test: ATP-induced calcium influx assay, chimeric receptor c10 in 1321N1 astrocytoma cells; assay type: cell-based
T3 construct: expressed in transfected cells; gene synthesis (Geneart), pLVX-IRES-mCherry (bicistronic, mCherry not fused)
T3 sequence (Q99571 with tags, fused parts or gaps DEL301-301/D302K/L303I/A304N/N306T/E307T/Q308T): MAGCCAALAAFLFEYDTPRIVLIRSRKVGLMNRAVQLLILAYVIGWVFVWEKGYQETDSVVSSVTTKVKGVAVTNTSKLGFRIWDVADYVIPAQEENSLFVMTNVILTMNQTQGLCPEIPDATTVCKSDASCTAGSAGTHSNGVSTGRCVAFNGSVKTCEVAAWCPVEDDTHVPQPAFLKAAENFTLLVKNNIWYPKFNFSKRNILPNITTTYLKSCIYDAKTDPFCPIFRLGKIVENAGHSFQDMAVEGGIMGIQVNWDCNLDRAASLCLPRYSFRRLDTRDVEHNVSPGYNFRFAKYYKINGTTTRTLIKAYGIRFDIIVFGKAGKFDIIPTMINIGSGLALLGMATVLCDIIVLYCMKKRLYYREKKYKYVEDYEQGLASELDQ

[4] = target: T3, chimeric P2X4(P2X2) receptor c10^R301-Q308; design: method as in ref 19 (supplement); settings: read-out: ATP EC50, published value, ref 19 (supplement); cited from earlier work
[5] = system: chimeric receptor c1^V71-I83; design: method as in PMID 36328074; settings: cited from earlier work
[6] = system: zebrafish P2X4 receptor; design: method as in PMID 19641588, PMID 12127972; settings: cited from earlier work
[7] = target: chimeric P2X4(P2X2) receptor c2-c5^C116-T186 (Homo sapiens, UniProt Q99571, A122H/A137L/A177Q/A181M/D121V/DEL149-175/E183P/G138D/H140L/INS118S/INS148CVPYYQGPSKTCEVFGWCPVEDGASV/INS179G/K127L/K180T/P120R/P176S/S131D/S136E/S141G/S145R/T123N/T124A/T133V/T139M/V125T/V144L); test: cell-based
[8] = target: T4, chimeric P2X4(P2X2) receptor c6^N208-S216 (Homo sapiens, UniProt Q99571, I209R/N208D/S216R/T211D/T212G); test: cell-based
T4 sequence (Q99571 1-388 N208D/I209R/T211D/T212G/S216R): T1 sequence (Q99571 1-388) with N208D, I209R, T211D, T212G, S216R

[9] = target: chimeric P2X4(P2X2) receptor c7^I218-D224 (Homo sapiens, UniProt Q99571, A221E/D220H/I218T/K222A/T223S/Y219F); test: cell-based
[10] = target: P2X4-D302I receptor mutant (Homo sapiens, UniProt Q99571, D302I); test: cell-based
[11] = target: T4, chimeric P2X4(P2X2) receptor c6^N208-S216; design: expressed in transfected cells; gene synthesis (Geneart), pLVX-IRES-mCherry; method as in ref 19 (supplement); settings: read-out: ATP EC50, published value, ref 19 (supplement); cited from earlier work

Sequence of P2X4-D302I receptor mutant (Q99571 whole entry D302I): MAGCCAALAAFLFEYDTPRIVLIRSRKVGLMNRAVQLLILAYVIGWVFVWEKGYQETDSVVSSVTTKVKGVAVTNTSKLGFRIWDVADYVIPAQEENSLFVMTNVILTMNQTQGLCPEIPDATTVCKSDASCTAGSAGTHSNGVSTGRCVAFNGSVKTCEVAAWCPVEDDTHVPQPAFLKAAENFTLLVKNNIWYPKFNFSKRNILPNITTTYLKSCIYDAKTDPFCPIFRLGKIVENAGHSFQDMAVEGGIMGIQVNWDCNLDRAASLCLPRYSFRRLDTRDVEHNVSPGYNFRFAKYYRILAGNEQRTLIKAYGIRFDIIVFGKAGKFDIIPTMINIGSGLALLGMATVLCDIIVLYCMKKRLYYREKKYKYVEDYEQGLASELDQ
Sequence of chimeric P2X4(P2X2) receptor c2-c5^C116-T186 (Q99571 with tags, fused parts or gaps isoform Q99571-3 with the stated changes): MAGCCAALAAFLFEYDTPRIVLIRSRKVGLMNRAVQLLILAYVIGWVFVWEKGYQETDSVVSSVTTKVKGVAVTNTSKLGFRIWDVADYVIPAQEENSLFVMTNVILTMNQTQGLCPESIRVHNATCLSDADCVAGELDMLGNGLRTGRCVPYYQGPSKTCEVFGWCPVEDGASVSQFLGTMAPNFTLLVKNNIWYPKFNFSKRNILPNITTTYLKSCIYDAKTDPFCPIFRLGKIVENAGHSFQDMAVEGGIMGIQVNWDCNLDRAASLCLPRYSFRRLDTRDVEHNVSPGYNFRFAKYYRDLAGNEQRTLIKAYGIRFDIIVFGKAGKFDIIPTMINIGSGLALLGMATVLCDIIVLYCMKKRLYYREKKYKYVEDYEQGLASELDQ
Sequence of chimeric P2X4(P2X2) receptor c7^I218-D224 (Q99571 whole entry I218T/Y219F/D220H/A221E/K222A/T223S): as the sequence (Q99571 whole entry D302I) above, with I218T, Y219F, D220H, A221E, K222A, T223S, I302D counted along it

**Q.** Which results are given for Nc1ncnc2c1ncn2[C@@H]1O[C@H](COP(=O)(O)OP(=O)(O)OP(=O)(O)O)[C@@H](O)[C@H]1O [ATP, Adenosine 5′-triphosphate]?
**A.** EC50 [1]: 357 nM; EC50 [2]: 921 nM; EC50 [3]: 912 nM; EC50 of ATP at c10 higher than at wt P2X4 ([3]; calcium influx): 2.4 fold; EC50 [4]: 862 nM; Maximal effect of ATP compared to that of the human wt P2X4 receptor [5]: 4%; Potency of ATP at the zebrafish P2X4 receptor lower than at the human P2X4 receptor [6]: about 700 fold; EC50 [7]: 2290 nM; EC50 [8]: 589 nM; EC50 [9]: 1200 nM; EC50 ([10]; ATP EC50, P2X4-D302I): 1600 nM; EC50 ([10]; ATP pEC50 ± SEM, P2X4-D302I): 1410 nM; EC50 [11]: 572 nM
